The experiment has as its target human P2X3 receptor (Homo sapiens (Human), UniProt P56373). Description: Evaluation of human P2X3 receptor inhibitory activity (Test Example 1). The class given is cell-based. The following applies: C6BU-1 cell transfected with human P2X3 receptor gene, FLIPR 384. The method in brief:
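C6BU-1 cells stably expressing human P2X3, loaded with 4 μM Fluo-3-AM 1 h at 37 °C, preincubated 5 min with test compound, then stimulated with 150 nM ATP solution (stock, pre-dispense) and monitored by FLIPR for 4 min. IC50 derived from maximum fluorescence ratio (post-ATP peak over baseline).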
human P2X3 receptor, sequence (P56373 whole entry): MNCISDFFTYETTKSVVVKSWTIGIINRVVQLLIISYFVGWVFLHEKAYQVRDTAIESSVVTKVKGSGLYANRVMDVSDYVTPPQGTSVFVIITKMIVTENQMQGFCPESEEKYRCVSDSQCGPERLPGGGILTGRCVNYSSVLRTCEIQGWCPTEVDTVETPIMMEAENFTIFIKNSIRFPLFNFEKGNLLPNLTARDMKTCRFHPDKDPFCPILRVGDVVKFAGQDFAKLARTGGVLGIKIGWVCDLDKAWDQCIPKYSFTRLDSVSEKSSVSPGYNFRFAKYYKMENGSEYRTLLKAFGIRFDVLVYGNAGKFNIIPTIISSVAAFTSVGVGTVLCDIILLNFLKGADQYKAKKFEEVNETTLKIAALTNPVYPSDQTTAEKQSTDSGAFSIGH
The IC50 is the point on the concentration scale where inhibition reaches its midpoint. A low value points to higher potency. `CC(C)(Cn1c(=O)[nH]/c(=N\c2ccc(Oc3cnc(C(F)(F)F)cn3)cc2)n(Cc2ccc(Cl)cc2)c1=O)C(=O)O` [Compound R-176] gave a concentration for half-maximal inhibition (IC50) of 7 nM.
In turn, `COc1cc(Oc2ccc(/N=c3\[nH]c(=O)n([C@@H](C)[C@@H](C)C(=O)O)c(=O)n3Cc3ccc(Cl)cc3)cc2)cc(F)n1` [Compound R-177] returned an IC50 of 5 nM.
To `CCc1oc2ccc(/N=c3\[nH]c(=O)n(C[C@@H](O)CC(=O)O)c(=O)n3Cc3ccc(Cl)cc3)cc2c1C` [Compound R-178] belongs 45 nM; to `CC(C)Oc1ccc(/N=c2\[nH]c(=O)n(C[C@@H](O)CC(=O)O)c(=O)n2Cc2ccc(Cl)cc2)cc1Cl` [Compound R-179], 56 nM; to `Cc1ccc(Oc2ccc(/N=c3\[nH]c(=O)n(C[C@H](C)C(=O)O)c(=O)n3Cc3ccc(Cl)cc3)cc2F)nn1` [Compound R-180], 7 nM.
The molecule `Cc1ccc(Oc2ccc(/N=c3\[nH]c(=O)n(CC(C)(C)C(=O)O)c(=O)n3Cc3ccc(Cl)cc3)cc2F)nn1` [Compound R-181] displayed an IC50 of 7 nM.
To `COC(=O)[C@H](C)[C@H](C)n1c(=O)[nH]/c(=N\c2ccc(Oc3ncc(C)s3)cc2)n(Cc2ccc(Cl)cc2)c1=O` [Compound R-182] belongs 26 nM; to `Cc1cnc(Oc2ccc(/N=c3\[nH]c(=O)n([C@@H](C)[C@@H](C)C(=O)O)c(=O)n3Cc3ccc(Cl)cc3)cc2)s1` [Compound R-183], 7 nM; to `COC(=O)[C@@H](C)Cn1c(=O)[nH]/c(=N\c2ccc(Oc3cncc(C)c3)cc2)n(Cc2ccc(Cl)cc2)c1=O` [Compound R-184], 10 nM.
In the case of `Cc1cncc(Oc2ccc(/N=c3\[nH]c(=O)n(C[C@H](C)C(=O)O)c(=O)n3Cc3ccc(Cl)cc3)cc2)c1` [Compound R-185], the IC50 was 12 nM.
To `COC(=O)[C@H](C)[C@H](C)n1c(=O)[nH]/c(=N\c2ccc(Oc3cncc(F)c3)c(C)c2)n(Cc2ccc(Cl)cc2)c1=O` [Compound R-186] belongs 26 nM; to `COC(=O)[C@H](C)[C@H](C)n1c(=O)[nH]/c(=N\c2ccc(Oc3cncc(F)c3)c(F)c2)n(Cc2ccc(Cl)cc2)c1=O` [Compound R-187], 21 nM.
`Cc1cc(/N=c2\[nH]c(=O)n([C@@H](C)[C@@H](C)C(=O)O)c(=O)n2Cc2ccc(Cl)cc2)ccc1Oc1cncc(F)c1` [Compound R-188] yielded an IC50 of 9 nM.
To `C[C@@H](C(=O)O)[C@H](C)n1c(=O)[nH]/c(=N\c2ccc(Oc3cncc(F)c3)c(F)c2)n(Cc2ccc(Cl)cc2)c1=O` [Compound R-189] belongs 8 nM; to `COc1ccc(Oc2ccc(/N=c3\[nH]c(=O)n(CC(C)(C)C(=O)O)c(=O)n3Cc3ccc(Cl)cc3)cc2)nn1` [Compound R-190], 9 nM; to `COc1ccc(Oc2ccc(/N=c3\[nH]c(=O)n([C@@H](C)[C@@H](C)C(=O)O)c(=O)n3Cc3ccc(Cl)cc3)cc2)nn1` [Compound R-191], 12 nM.
`C[C@@H](Cn1c(=O)[nH]/c(=N\c2ccc(Oc3nc4ccccc4s3)cc2)n(Cc2ccc(Cl)cc2)c1=O)C(=O)O` [Compound R-192] yielded an IC50 of 4 nM.
As for `COC(=O)C(C)(C)Cn1c(=O)[nH]/c(=N\c2ccc(Oc3cncc(C)c3)cc2)n(Cc2ccc(Cl)cc2)c1=O` [Compound R-193], the half-maximal inhibitory concentration (IC50) came to 11 nM.
Turning to `Cc1cncc(Oc2ccc(/N=c3\[nH]c(=O)n(CC(C)(C)C(=O)O)c(=O)n3Cc3ccc(Cl)cc3)cc2)c1` [Compound R-194], the concentration for half-maximal inhibition (IC50) worked out at 13 nM.
In the case of `C[C@@H](Cn1c(=O)[nH]/c(=N\c2ccc(Oc3ncns3)cc2)n(Cc2ccc(Cl)cc2)c1=O)C(=O)O` [Compound R-195], the concentration for half-maximal inhibition (IC50) turned out to be 9 nM.
To `C[C@@H](Cn1c(=O)[nH]/c(=N\c2ccc(Oc3ccc(F)nn3)cc2)n(Cc2ccc(Cl)cc2)c1=O)C(=O)O` [Compound R-196] belongs 11 nM; to `C[C@@H](Cn1c(=O)[nH]/c(=N\c2ccc(Oc3ccc(Cl)nn3)cc2)n(Cc2ccc(Cl)cc2)c1=O)C(=O)O` [Compound R-197], 7 nM; to `C[C@@H](Cn1c(=O)[nH]/c(=N\c2ccc(Oc3cc(F)ncn3)cc2)n(Cc2ccc(Cl)cc2)c1=O)C(=O)O` [Compound R-198], 9 nM.
The molecule `COC(=O)[C@@H](C)Cn1c(=O)[nH]/c(=N\c2ccc(Oc3cncc(OC)c3)cc2)n(Cc2ccc(Cl)cc2)c1=O` [Compound R-199] had a 50% inhibitory concentration (IC50) of 7 nM.
To `COC(=O)C(C)(C)Cn1c(=O)[nH]/c(=N\c2ccc(Oc3cncc(OC)c3)cc2)n(Cc2ccc(Cl)cc2)c1=O` [Compound R-200] belongs 8 nM; to `COc1cncc(Oc2ccc(/N=c3\[nH]c(=O)n(C[C@H](C)C(=O)O)c(=O)n3Cc3ccc(Cl)cc3)cc2)c1` [Compound R-201], 8 nM; to `COc1cncc(Oc2ccc(/N=c3\[nH]c(=O)n(CC(C)(C)C(=O)O)c(=O)n3Cc3ccc(Cl)cc3)cc2)c1` [Compound R-202], 12 nM.
In turn, `C[C@@H](Cn1c(=O)[nH]/c(=N\c2ccc(Oc3nc4ncccc4o3)cc2)n(Cc2ccc(Cl)cc2)c1=O)C(=O)O` [Compound R-204] gave a half-maximal inhibitory concentration (IC50) of 8 nM.
Molecule `COC(=O)[C@@H](C)Cn1c(=O)[nH]/c(=N\c2ccc(Oc3cccnc3)cc2)n(Cc2ccc(Cl)cc2)c1=O` [Compound R-205] displayed an IC50 of 8 nM.
To `COC(=O)[C@@H](C)Cn1c(=O)[nH]/c(=N\c2ccc(Oc3ccncc3)cc2)n(Cc2ccc(Cl)cc2)c1=O` [Compound R-206] belongs 5 nM; to `C[C@@H](Cn1c(=O)[nH]/c(=N\c2ccc(Oc3cccnc3)cc2)n(Cc2ccc(Cl)cc2)c1=O)C(=O)O` [Compound R-207], 9 nM; to `C[C@@H](Cn1c(=O)[nH]/c(=N\c2ccc(Oc3ccncc3)cc2)n(Cc2ccc(Cl)cc2)c1=O)C(=O)O` [Compound R-208], 5 nM.
To `C[C@@H](Cn1c(=O)[nH]/c(=N\c2ccc(Oc3nccnc3Cl)cc2)n(Cc2ccc(Cl)cc2)c1=O)C(=O)O` [Compound R-211] belongs 7 nM.
To `C[C@@H](C(=O)O)[C@H](C)n1c(=O)[nH]/c(=N\c2ccc(Oc3ccnc(C#N)c3)cc2)n(Cc2ccc(Cl)cc2)c1=O` [Compound R-212] belongs 8 nM.
Turning to `COC(=O)[C@H](C)[C@H](C)n1c(=O)[nH]/c(=N\c2ccc(Oc3ncc(C)s3)cc2)n(Cc2ccc(C)cc2)c1=O` [Compound R-213], the half-inhibitory concentration (IC50) was determined as 12 nM.
The molecule `COC(=O)[C@@H](C)Cn1c(=O)[nH]/c(=N\c2ccc(Oc3ncc(C)s3)cc2)n(Cc2ccc(C)cc2)c1=O` [Compound R-214] came in with an IC50 of 6 nM.
The molecule `COC(=O)C(C)(C)Cn1c(=O)[nH]/c(=N\c2ccc(Oc3ncc(C)s3)cc2)n(Cc2ccc(C)cc2)c1=O` [Compound R-215] displayed an IC50 of 6 nM.
To `Cc1ccc(Cn2c(=O)n([C@@H](C)[C@@H](C)C(=O)O)c(=O)[nH]/c2=N\c2ccc(Oc3ncc(C)s3)cc2)cc1` [Compound R-217] belongs 8 nM; to `Cc1ccc(Cn2c(=O)n(C[C@H](C)C(=O)O)c(=O)[nH]/c2=N\c2ccc(Oc3ncc(C)s3)cc2)cc1` [Compound R-218], 6 nM; to `Cc1ccc(Cn2c(=O)n(CC(C)(C)C(=O)O)c(=O)[nH]/c2=N\c2ccc(Oc3ncc(C)s3)cc2)cc1` [Compound R-219], 11 nM.
To `CCc1oc2ccc(/N=c3\[nH]c(=O)n(C[C@H](C)C(=O)OC)c(=O)n3Cc3ccc(C)cc3)cc2c1C` [Compound R-220] belongs 22 nM; to `COC(=O)[C@@H](C)Cn1c(=O)[nH]/c(=N\c2ccc(Oc3ccnc(F)c3)cc2)n(Cc2ccc(C)cc2)c1=O` [Compound R-221], 5 nM; to `CCc1oc2ccc(/N=c3\[nH]c(=O)n(C[C@H](C)C(=O)O)c(=O)n3Cc3ccc(C)cc3)cc2c1C` [Compound R-222], 9 nM.
Regarding `Cc1ccc(Cn2c(=O)n(C[C@H](C)C(=O)O)c(=O)[nH]/c2=N\c2ccc(Oc3ccnc(F)c3)cc2)cc1` [Compound R-223], the IC50 worked out at 7 nM.
To `C[C@@H](C(=O)O)[C@H](C)n1c(=O)[nH]/c(=N\c2ccc(Oc3cnc(C#N)cn3)cc2)n(Cc2ccc(Cl)cc2)c1=O` [Compound R-224] belongs 12 nM; to `COC(=O)CCn1c(=O)[nH]/c(=N\c2ccc(Oc3ccccn3)cc2)n(Cc2ccc(Cl)cc2)c1=O` [Compound R-225], 4 nM; to `COC(=O)CCn1c(=O)[nH]/c(=N\c2ccc(Oc3ccccn3)cc2)n(Cc2ccc(C)cc2)c1=O` [Compound R-226], 3 nM.
To `COC(=O)CCn1c(=O)[nH]/c(=N\c2ccc(-n3ccccc3=O)cc2)n(Cc2ccc(Cl)cc2)c1=O` [Compound R-227] belongs 35 nM; to `NC(=O)CCn1c(=O)[nH]/c(=N\c2ccc(Oc3ccccn3)cc2)n(Cc2ccc(Cl)cc2)c1=O` [Compound R-229], 7 nM; to `CNC(=O)CCn1c(=O)[nH]/c(=N\c2ccc(Oc3ccccn3)cc2)n(Cc2ccc(Cl)cc2)c1=O` [Compound R-230], 5 nM.
Molecule `C[C@@H](Cn1c(=O)[nH]/c(=N\c2ccc(Oc3ccc4nccn4n3)cc2)n(Cc2ccc(Cl)cc2)c1=O)C(=O)O` [Compound R-231] gave a half-maximal inhibitory concentration (IC50) of 5 nM.
To `COc1nc(=O)n(Cc2ccc(Cl)cc2)/c(=N/c2ccc(Oc3cccc(C#N)n3)cc2)[nH]1` [Compound R-232] belongs 61 nM; to `CC(C)(C)n1c(=O)[nH]/c(=N\c2ccc(Oc3cccc(C(N)=O)n3)cc2)n(Cc2ccc(Cl)cc2)c1=O` [Compound R-233], 318 nM.
To `CC1(C)OC[C@H](Cn2c(=O)[nH]/c(=N\c3ccc(Oc4ccccn4)cc3)n(Cc3ccc(Cl)cc3)c2=O)O1` [Compound R-234] belongs 3 nM; to `O=c1[nH]/c(=N\c2ccc(Oc3ccccn3)cc2)n(Cc2ccc(Cl)cc2)c(=O)n1C[C@H](O)CO` [Compound R-235], 10 nM; to `CC1(Cn2c(=O)[nH]/c(=N\c3ccc(Oc4ccccn4)cc3)n(Cc3ccc(Cl)cc3)c2=O)COC(C)(C)OC1` [Compound R-236], 4 nM.
